US10167262B2, “Herbicidal substituted 3-arylpyrazoles” (FMC CORPORATION, priority 2014, dated 2019)
Values joined by “and” are separate entries in the source; they are usually repeats but may differ in a detail not shown here. Identical values can stand only once.

Assays:
Assay type in all cases: in vivo
[1] = test system: waterhemp (common waterhemp, AMATA, Amaranthus rudis); test: Test H postemergence mixture test of compound 39 with commercial herbicides, observed and Colby expected effect 0-100; details: commercial herbicide alone, 14 days after treatment
Source text: (§1) This test evaluated the effect of mixtures of compound 39 with three commercial herbicides on five plant species. Seeds of plant species selected from corn (ZEAMD, Zea mays), soybean (GLXMA, Glycine max), palmer pigweed (AMAPA, Amaranthus palmeri), waterhemp (common waterhemp, AMATA, Amaranthus rudis), and Kochia (KCHSC, Kochia scoparia) were planted in pots containing Redi-Earth® planting medium (Scotts Company, 14111 Scottslawn Road, Marysville, Ohio 43041) comprising spaghnum peat moss, vermiculite, wetting agent and starter nutrients and treated with postemergence applications of test chemicals formulated in a non-phytotoxic solvent mixture which included a surfactant and applied using a volume of 299 L/ha. Each treatment was replicated four times. Treated plants and controls were maintained in a greenhouse using supplemental lighting to maintain a photoperiod of about 16 h; daytime and nighttime temperatures were about 24-30° C. and 19-21° C., respectively. Nutrients were applied using a balanced fertilizer applied through the watering system. At 14 days after treatment, all species were compared to controls and visually evaluated. Plant response ratings were calculated as the mean of the four replicates, are summarized in Tables H1 through H6, and are based on a scale of 0 to 100 where 0 is no effect and 100 is complete control. A dash (-) response means no test result.
(§2) Colby's Equation was used to determine the herbicidal effects expected from the mixtures. Colby's Equation (Colby, S. R. “Calculating Synergistic and Antagonistic Responses of Herbicide Combinations,” Weeds, 15(1), pp 20-22 (1967)) calculates the expected additive effect of herbicidal mixtures and for two active ingredients is of the form: Pa+b=Pa+Pb−(PaPb/100) • where • Pa+b is the percentage effect of the mixture expected from additive contribution of the individual components: • Pa is the observed percentage effect of the first active ingredient at the same use rate as in the mixture, and • Pb is the observed percentage effect of the second active ingredient at the same use rate as in the mixture. In the following Tables, rates are shown in grams of active ingredient per hectare (g a.i./ha); “Obsd.” is the observed effect. “Exp.” is the expected effect calculated from Colby's Equation.

[2] = test system: palmer pigweed (AMAPA, Amaranthus palmeri); test: as above; details: commercial herbicide alone, 14 days after treatment
Source text: as §1, §2

[3] = test system: Kochia (KCHSC, Kochia scoparia); test: as above; details: commercial herbicide alone, 14 days after treatment
Source text: as §1, §2

[4] = test system: soybean (GLXMA, Glycine max); test: as above; details: commercial herbicide alone, 14 days after treatment
Source text: as §1, §2

corn (ZEAMD, Zea mays) = test: as above; details: commercial herbicide alone, 14 days after treatment
Source text: as §1, §2

corn (Zea mays) = test: Test A pre-/postemergence greenhouse herbicide test, visual injury rating 0-100; details: 1000 g ai/ha
Method in brief: (§3)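 Test chemicals in a non-phytotoxic solvent/surfactant blend were sprayed onto loam–sand soil after planting (pre) and onto 2–10 cm seedlings at one to two leaves (post). Greenhouse hold approx. 10 days; injury then judged visually.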

[5] = test system: giant foxtail (Setaria faberii); test: as above; details: 1000 g ai/ha
Method in brief: as §3

[6] = test system: morningglory (Ipomoea spp.); test: as above; details: 1000 g ai/ha
Method in brief: as §3

[7] = test system: barnyardgrass (Echinochloa crus-galli); test: as above; details: 1000 g ai/ha
Method in brief: as §3

[8] = test system: large (Lg) crabgrass (Digitaria sanguinalis); test: as above; details: 1000 g ai/ha
Method in brief: as §3

[9] = test system: velvetleaf (Abutilon theophrasti); test: as above; details: 1000 g ai/ha
Method in brief: as §3

[10] = test system: wheat (Triticum aestivum); test: as above; details: 1000 g ai/ha
Method in brief: as §3

[11] = test system: pigweed (Amaranthus retroflexus); test: as above; details: 1000 g ai/ha
Method in brief: as §3

[12] = test system: ducksalad (Heteranthera limosa); test: Test B flooded paddy test, plant response rating 0-100; details: Flood, 250 g ai/ha; scale 0 to 100 (0 no effect, 100 complete control); 13 to 15 days
Method in brief: (§4)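 In-water treatment: compound dosed into 3 cm flood over soil, water level unchanged throughout. Controls run alongside; visual assessment at day 13–15.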

rice (Oryza sativa) = test: as above; details: Flood, 250 g ai/ha; scale 0 to 100 (0 no effect, 100 complete control); 13 to 15 days
Method in brief: as §4

[13] = test system: barnyardgrass (Echinochloa crus-galli); test: as above; details: Flood, 250 g ai/ha; scale 0 to 100 (0 no effect, 100 complete control); 13 to 15 days
Method in brief: as §4

[14] = test system: sedge, umbrella (small-flower umbrella sedge, Cyperus difformis); test: as above; details: Flood, 250 g ai/ha; scale 0 to 100 (0 no effect, 100 complete control); 13 to 15 days
Method in brief: as §4

Compound	AMATA Obsd. (observed effect) ([1]; 0.25 g a.i./ha)	AMATA Obsd. (observed effect) ([1]; 1 g a.i./ha)	AMAPA Obsd. (observed effect) ([2]; 0.25 g a.i./ha)	AMAPA Obsd. (observed effect) ([2]; 1 g a.i./ha)	KCHSC Obsd. (observed effect) ([3]; 0.25 g a.i./ha)	KCHSC Obsd. (observed effect) ([3]; 1 g a.i./ha)	GLXMA Obsd. (observed effect) ([4]; 0.25 g a.i./ha)	GLXMA Obsd. (observed effect) ([4]; 1 g a.i./ha)	ZEAMD Obsd. (observed effect) (corn (ZEAMD, Zea mays); 0.25 g a.i./ha)	ZEAMD Obsd. (observed effect) (corn (ZEAMD, Zea mays); 1 g a.i./ha)	Plant response rating (0 to 100 scale), Corn (corn (Zea mays); Postemergence)	Plant response rating (0 to 100 scale), Corn (corn (Zea mays); Preemergence)	Plant response rating (0 to 100 scale), Foxtail, Giant ([5]; Postemergence)	Plant response rating (0 to 100 scale), Foxtail, Giant ([5]; Preemergence)	Plant response rating (0 to 100 scale), Morningglory ([6]; Postemergence)	Plant response rating (0 to 100 scale), Morningglory ([6]; Preemergence)	Plant response rating (0 to 100 scale), Barnyardgrass ([7]; Postemergence)	Plant response rating (0 to 100 scale), Barnyardgrass ([7]; Preemergence)	Plant response rating (0 to 100 scale), Crabgrass, Large ([8]; Postemergence)	Plant response rating (0 to 100 scale), Crabgrass, Large ([8]; Preemergence)	further results
CCOC(=O)c1ccccc1S(=O)(=O)NC(=O)Nc1nc(Cl)cc(OC)n1 [Chlorimuron-ethyl, chlorimuron-ethyl]	77	76	65	86	88	97	0	0	0	33											
Clc1ccc(NN=C(c2ccccc2)c2c[nH]nc2-c2cc(Cl)cc(Cl)c2)cc1 [Compound 65]											0	0	0	0	30	0	0	0	0	0	Plant response rating (0 to 100 scale), Velvetleaf ([9]; Postemergence): 90; Plant response rating (0 to 100 scale), Velvetleaf ([9]; Preemergence): 80; Plant response rating (0 to 100 scale), Wheat ([10]; Postemergence): 0; Plant response rating (0 to 100 scale), Wheat ([10]; Preemergence): 0; Plant response rating (0 to 100 scale), Pigweed ([11]; Postemergence): 90; Plant response rating (0 to 100 scale), Pigweed ([11]; Preemergence): 80; Plant response rating, Ducksalad [12]: 0; Plant response rating, Rice (rice (Oryza sativa)): 0; Plant response rating, Barnyardgrass [13]: 0; Plant response rating, Sedge, Umbrella [14]: 0
N=C(c1ccccc1)c1c[nH]nc1-c1cc(F)cc(F)c1 [Compound 67]											0	0	0	0	0	0	0	0	0	0	Plant response rating (0 to 100 scale), Velvetleaf ([9]; Postemergence): 90; Plant response rating (0 to 100 scale), Velvetleaf ([9]; Preemergence): 100; Plant response rating (0 to 100 scale), Wheat ([10]; Postemergence): 0; Plant response rating (0 to 100 scale), Wheat ([10]; Preemergence): 0; Plant response rating (0 to 100 scale), Pigweed ([11]; Postemergence): 80; Plant response rating (0 to 100 scale), Pigweed ([11]; Preemergence): 100; Plant response rating, Ducksalad [12]: 0; Plant response rating, Rice (rice (Oryza sativa)): 0; Plant response rating, Barnyardgrass [13]: 0; Plant response rating, Sedge, Umbrella [14]: 0
CS(=O)(=O)c1ccc(C(=O)C2C(=O)CCCC2=O)c([N+](=O)[O-])c1 [Mesotrione, mesotrione]																					AMATA Obsd. (observed effect) ([1]; 4 g a.i./ha): 79 and 92; AMAPA Obsd. (observed effect) ([2]; 4 g a.i./ha): 78 and 72; KCHSC Obsd. (observed effect) ([3]; 4 g a.i./ha): 79 and 72; GLXMA Obsd. (observed effect) ([4]; 4 g a.i./ha): 64 and 62; ZEAMD Obsd. (observed effect) (corn (ZEAMD, Zea mays); 4 g a.i./ha): 0
COc1cc(OC)nc(NC(=O)NS(=O)(=O)c2ncccc2C(=O)N(C)C)n1 [Nicosulfuron, nicosulfuron]	63	78	3	100	43	89	0	51	0	0											
